Data reported in ChEMBL document CHEMBL1671676, “In vitro activity of nemonoxacin, a novel nonfluorinated quinolone, against 2,440 clinical isolates” (2009).
Converted amounts (≈) assume the structure as drawn.

Legend:
Assay type in all cases: functional
Klebsiella pneumoniae [1] = experiment: Antibacterial activity against Klebsiella pneumoniae assessed as percent cumulative susceptible isolates at minimum inhibitory concentration of 4 ug/ml by CLSI broth microdilution method; design: scale not given: the % may be the effect or the level left
Escherichia coli [2] = experiment: Antibacterial activity against Escherichia coli assessed as percent cumulative susceptible isolates at minimum inhibitory concentration of 1 ug/ml by CLSI broth microdilution method; design: scale not given: the % may be the effect or the level left
Staphylococcus aureus [3] = experiment: Antibacterial activity against community-associated methicillin-resistant Staphylococcus aureus assessed as percent cumulative susceptible isolates at minimum inhibitory concentration of […] by CLSI broth microdilution method; design: scale not given: the % may be the effect or the level left
[4] = test system: Stenotrophomonas maltophilia; experiment: Antibacterial activity against Stenotrophomonas maltophilia assessed as percent cumulative susceptible isolates at minimum inhibitory concentration of 2 ug/ml by CLSI broth microdilution method; design: scale not given: the % may be the effect or the level left
[5] = test system: Stenotrophomonas maltophilia; experiment: Antibacterial activity against Stenotrophomonas maltophilia assessed as percent cumulative susceptible isolates at minimum inhibitory concentration of 1 ug/ml by CLSI broth microdilution method; design: scale not given: the % may be the effect or the level left
Proteus mirabilis = experiment: Antibacterial activity against Proteus mirabilis assessed as percent cumulative susceptible isolates at minimum inhibitory concentration of 4 ug/ml by CLSI broth microdilution method; design: scale not given: the % may be the effect or the level left
Klebsiella pneumoniae [6] = experiment: Antibacterial activity against Klebsiella pneumoniae assessed as percent cumulative susceptible isolates at minimum inhibitory concentration of 2 ug/ml by CLSI broth microdilution method; design: scale not given: the % may be the effect or the level left
Enterococcus faecalis [7] = experiment: Antibacterial activity against Enterococcus faecalis assessed as percent cumulative susceptible isolates at minimum inhibitory concentration of 1 ug/ml by CLSI broth microdilution method; design: scale not given: the % may be the effect or the level left
Acinetobacter baumannii [8] = experiment: Antibacterial activity against Acinetobacter baumannii assessed as percent cumulative susceptible isolates at minimum inhibitory concentration of 16 ug/ml by CLSI broth microdilution method; design: scale not given: the % may be the effect or the level left
Klebsiella pneumoniae [9] = experiment: Antibacterial activity against Klebsiella pneumoniae assessed as percent cumulative susceptible isolates at minimum inhibitory concentration of 0.06 ug/ml by CLSI broth microdilution method; design: scale not given: the % may be the effect or the level left
Enterobacter cloacae [10] = experiment: Antibacterial activity against Enterobacter cloacae assessed as percent cumulative susceptible isolates at minimum inhibitory concentration of 4 ug/ml by CLSI broth microdilution method; design: scale not given: the % may be the effect or the level left
Escherichia coli [11] = experiment: Antibacterial activity against Escherichia coli assessed as percent cumulative susceptible isolates at minimum inhibitory concentration of 0.5 ug/ml by CLSI broth microdilution method; design: scale not given: the % may be the effect or the level left
Enterobacter cloacae [12] = experiment: Antibacterial activity against Enterobacter cloacae assessed as percent cumulative susceptible isolates at minimum inhibitory concentration of 1 ug/ml by CLSI broth microdilution method; design: scale not given: the % may be the effect or the level left
Streptococcus pneumoniae [13] = experiment: Antibacterial activity against Streptococcus pneumoniae assessed as percent cumulative susceptible isolates at minimum inhibitory concentration of […] by CLSI broth microdilution method; design: scale not given: the % may be the effect or the level left
Enterococcus faecium [14] = experiment: Antibacterial activity against Enterococcus faecium assessed as percent cumulative susceptible isolates at minimum inhibitory concentration of 2 ug/ml by CLSI broth microdilution method; design: scale not given: the % may be the effect or the level left
Klebsiella pneumoniae [15] = experiment: Antibacterial activity against Klebsiella pneumoniae assessed as percent cumulative susceptible isolates at minimum inhibitory concentration of 1 ug/ml by CLSI broth microdilution method; design: scale not given: the % may be the effect or the level left
[16] = test system: Staphylococcus epidermidis; experiment: Antibacterial activity against methicillin-susceptible Staphylococcus epidermidis assessed as percent cumulative susceptible isolates at minimum inhibitory concentration of 4 ug/ml by CLSI broth microdilution method; design: scale not given: the % may be the effect or the level left
Acinetobacter baumannii [17] = experiment: Antibacterial activity against Acinetobacter baumannii assessed as percent cumulative susceptible isolates at minimum inhibitory concentration of 0.5 ug/ml by CLSI broth microdilution method; design: scale not given: the % may be the effect or the level left
Enterococcus faecium [18] = experiment: Antibacterial activity against Enterococcus faecium assessed as percent cumulative susceptible isolates at minimum inhibitory concentration of 4 ug/ml by CLSI broth microdilution method; design: scale not given: the % may be the effect or the level left
Staphylococcus aureus [19] = experiment: Antibacterial activity against methicillin-susceptible Staphylococcus aureus assessed as percent cumulative susceptible isolates at minimum inhibitory concentration of 0.06 ug/ml by CLSI broth microdilution method; design: scale not given: the % may be the effect or the level left
Staphylococcus aureus [20] = experiment: Antibacterial activity against methicillin-susceptible Staphylococcus aureus assessed as percent cumulative susceptible isolates at minimum inhibitory concentration of 1 ug/ml by CLSI broth microdilution method; design: scale not given: the % may be the effect or the level left
Enterococcus faecalis [21] = experiment: Antibacterial activity against Enterococcus faecalis assessed as percent cumulative susceptible isolates at minimum inhibitory concentration of 2 ug/ml by CLSI broth microdilution method; design: scale not given: the % may be the effect or the level left
Klebsiella pneumoniae [22] = experiment: Antibacterial activity against Klebsiella pneumoniae assessed as percent cumulative susceptible isolates at minimum inhibitory concentration of […] by CLSI broth microdilution method; design: scale not given: the % may be the effect or the level left
Escherichia coli [23] = experiment: Antibacterial activity against Escherichia coli assessed as percent cumulative susceptible isolates at minimum inhibitory concentration of 4 ug/ml by CLSI broth microdilution method; design: scale not given: the % may be the effect or the level left
[24] = test system: Staphylococcus epidermidis; experiment: Antibacterial activity against methicillin-susceptible Staphylococcus epidermidis assessed as percent cumulative susceptible isolates at minimum inhibitory concentration of […] by CLSI broth microdilution method; design: scale not given: the % may be the effect or the level left
Streptococcus pneumoniae [25] = experiment: Antibacterial activity against Streptococcus pneumoniae assessed as percent cumulative susceptible isolates at minimum inhibitory concentration of 0.06 ug/ml by CLSI broth microdilution method; design: scale not given: the % may be the effect or the level left
Klebsiella pneumoniae [26] = experiment: Antibacterial activity against Klebsiella pneumoniae assessed as percent cumulative susceptible isolates at minimum inhibitory concentration of 0.5 ug/ml by CLSI broth microdilution method; design: scale not given: the % may be the effect or the level left
[27] = test system: Staphylococcus epidermidis; experiment: Antibacterial activity against methicillin-susceptible Staphylococcus epidermidis assessed as percent cumulative susceptible isolates at minimum inhibitory concentration of 2 ug/ml by CLSI broth microdilution method; design: scale not given: the % may be the effect or the level left
Escherichia coli [28] = experiment: Antibacterial activity against Escherichia coli assessed as percent cumulative susceptible isolates at minimum inhibitory concentration of 0.06 ug/ml by CLSI broth microdilution method; design: scale not given: the % may be the effect or the level left
Staphylococcus aureus [29] = experiment: Antibacterial activity against methicillin-susceptible Staphylococcus aureus assessed as percent cumulative susceptible isolates at minimum inhibitory concentration of […] by CLSI broth microdilution method; design: scale not given: the % may be the effect or the level left
Escherichia coli [30] = experiment: Antibacterial activity against Escherichia coli assessed as percent cumulative susceptible isolates at minimum inhibitory concentration of […] by CLSI broth microdilution method; design: scale not given: the % may be the effect or the level left
Klebsiella pneumoniae [31] = experiment: Antibacterial activity against Klebsiella pneumoniae assessed as percent cumulative susceptible isolates at minimum inhibitory concentration of 32 ug/ml by CLSI broth microdilution method; design: scale not given: the % may be the effect or the level left
Pseudomonas aeruginosa [32] = experiment: Antibacterial activity against Pseudomonas aeruginosa assessed as percent cumulative susceptible isolates at minimum inhibitory concentration of 2 ug/ml by CLSI broth microdilution method; design: scale not given: the % may be the effect or the level left
Pseudomonas aeruginosa [33] = experiment: Antibacterial activity against Pseudomonas aeruginosa assessed as percent cumulative susceptible isolates at minimum inhibitory concentration of 32 ug/ml by CLSI broth microdilution method; design: scale not given: the % may be the effect or the level left
Klebsiella oxytoca = experiment: Antibacterial activity against Klebsiella oxytoca assessed as percent cumulative susceptible isolates at minimum inhibitory concentration of 0.06 ug/ml by CLSI broth microdilution method; design: scale not given: the % may be the effect or the level left
Enterobacter cloacae [34] = experiment: Antibacterial activity against Enterobacter cloacae assessed as percent cumulative susceptible isolates at minimum inhibitory concentration of 0.06 ug/ml by CLSI broth microdilution method; design: scale not given: the % may be the effect or the level left
Staphylococcus aureus [35] = experiment: Antibacterial activity against methicillin-resistant Staphylococcus aureus by CLSI M7-A7 broth microdilution method

| Structure (SMILES) | Activity (Klebsiella pneumoniae [1]) | Activity (Escherichia coli [2]) | Activity (Staphylococcus aureus [3]) | Activity [4] | Activity [5] | Activity (Proteus mirabilis) | Activity (Klebsiella pneumoniae [6]) | Activity (Enterococcus faecalis [7]) | Activity (Acinetobacter baumannii [8]) | Activity (Klebsiella pneumoniae [9]) | Activity (Enterobacter cloacae [10]) | Activity (Escherichia coli [11]) | Activity (Enterobacter cloacae [12]) | Activity (Streptococcus pneumoniae [13]) | Activity (Enterococcus faecium [14]) | Activity (Klebsiella pneumoniae [15]) | Activity [16] | Activity (Acinetobacter baumannii [17]) | Activity (Enterococcus faecium [18]) | Activity (Staphylococcus aureus [19]) | further results |
| --- | --- | --- | --- | --- | --- | --- | --- | --- | --- | --- | --- | --- | --- | --- | --- | --- | --- | --- | --- | --- | --- |
| C[C@H]1COc2c(N3CCN(C)CC3)c(F)cc3c(=O)c(C(=O)O)cn1c23.C[C@H]1COc2c(N3CCN(C)CC3)c(F)cc3c(=O)c(C(=O)O)cn1c23.O [LEVOFLOXACIN] | 96% | 75.1% | 24% | 69.2% | 46.2% | 93.9% | 93% | 35.8% | 100% | 69.8% | 97.2% | 73.6% | 91.7% | 10.2% | 23.7% | 92.5% | 62.8% | 86.7% | 28.9% | 0.5% | Activity (Staphylococcus aureus [20]): 91.4%; Activity (Enterococcus faecalis [21]): 67.9%; Activity (Klebsiella pneumoniae [22]): 78.4%; Activity (Escherichia coli [23]): 75.6%; Activity [24]: 53.5%; Activity (Streptococcus pneumoniae [25]): 0.5%; Activity (Klebsiella pneumoniae [26]): 87.4%; Activity [27]: 55.8%; Activity (Escherichia coli [28]): 66.4%; Activity (Staphylococcus aureus [29]): 81.8%; Activity (Escherichia coli [30]): 70%; Activity (Klebsiella pneumoniae [31]): 100%; Activity (Pseudomonas aeruginosa [32]): 70.1%; Activity (Pseudomonas aeruginosa [33]): 100%; Activity (Klebsiella oxytoca): 93.8%; Activity (Enterobacter cloacae [34]): 87.5%; MIC50 (Staphylococcus aureus [35]): ≥ 32 µg/mL |
| COc1c(N2C[C@@H](C)C[C@H](N)C2)ccc2c(=O)c(C(=O)O)cn(C3CC3)c12 [NEMONOXACIN] | 94% | 74.8% | 60% | 42.3% | 26.9% | 81.8% | 92% | 90.1% | 100% | 1.5% | 93.1% | 72.5% | 91.7% | 100% | 31.6% | 86.9% | 100% | 86.7% | 42.1% | 88.8% | Activity (Staphylococcus aureus [20]): 94.9%; Activity (Enterococcus faecalis [21]): 97.5%; Activity (Klebsiella pneumoniae [22]): 68.3%; Activity (Escherichia coli [23]): 75.8%; Activity [24]: 86%; Activity (Streptococcus pneumoniae [25]): 99.4%; Activity (Klebsiella pneumoniae [26]): 77.9%; Activity [27]: 97.8%; Activity (Escherichia coli [28]): 22.7%; Activity (Staphylococcus aureus [29]): 92.5%; Activity (Escherichia coli [30]): 68.8%; Activity (Klebsiella pneumoniae [31]): 98%; Activity (Pseudomonas aeruginosa [32]): 66.4%; Activity (Pseudomonas aeruginosa [33]): 91.2%; Activity (Klebsiella oxytoca): 6.3%; Activity (Enterobacter cloacae [34]): 8.3%; MIC50 (Staphylococcus aureus [35]): 4 µg/mL (≈ 10.8 µM) |
